How the values were obtained:
[1] = test system: Jurkat; assay: cells; settings: Homo sapiens, 48 h
[2] = test system: Jurkat; assay: cells; settings: Homo sapiens, 24 h
[3] = biological target: T1, Receptor-interacting serine/threonine-protein kinase 1 (Homo sapiens, UniProt Q13546)
T1 sequence (Q13546 whole entry): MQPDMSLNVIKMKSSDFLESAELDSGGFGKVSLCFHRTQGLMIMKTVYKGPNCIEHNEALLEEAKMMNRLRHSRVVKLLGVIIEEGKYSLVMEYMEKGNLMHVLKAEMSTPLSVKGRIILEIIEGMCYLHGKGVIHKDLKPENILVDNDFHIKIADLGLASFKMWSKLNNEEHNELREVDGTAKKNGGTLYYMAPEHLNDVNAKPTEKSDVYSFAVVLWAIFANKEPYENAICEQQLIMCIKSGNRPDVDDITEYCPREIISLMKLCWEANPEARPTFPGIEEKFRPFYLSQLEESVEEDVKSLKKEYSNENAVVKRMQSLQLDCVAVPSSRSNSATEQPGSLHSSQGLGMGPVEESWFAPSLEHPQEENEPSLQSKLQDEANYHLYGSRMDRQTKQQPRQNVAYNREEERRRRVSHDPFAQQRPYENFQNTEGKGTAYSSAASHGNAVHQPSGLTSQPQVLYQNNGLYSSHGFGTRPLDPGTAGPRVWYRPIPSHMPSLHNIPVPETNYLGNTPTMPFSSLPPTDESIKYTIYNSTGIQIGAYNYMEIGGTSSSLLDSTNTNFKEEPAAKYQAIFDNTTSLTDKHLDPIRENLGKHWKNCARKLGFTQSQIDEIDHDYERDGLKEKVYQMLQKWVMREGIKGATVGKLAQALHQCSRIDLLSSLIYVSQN

[4] = biological target: T2, Eukaryotic translation initiation factor 2-alpha kinase 3 (Homo sapiens, UniProt Q9NZJ5)
T2 sequence (Q9NZJ5 whole entry): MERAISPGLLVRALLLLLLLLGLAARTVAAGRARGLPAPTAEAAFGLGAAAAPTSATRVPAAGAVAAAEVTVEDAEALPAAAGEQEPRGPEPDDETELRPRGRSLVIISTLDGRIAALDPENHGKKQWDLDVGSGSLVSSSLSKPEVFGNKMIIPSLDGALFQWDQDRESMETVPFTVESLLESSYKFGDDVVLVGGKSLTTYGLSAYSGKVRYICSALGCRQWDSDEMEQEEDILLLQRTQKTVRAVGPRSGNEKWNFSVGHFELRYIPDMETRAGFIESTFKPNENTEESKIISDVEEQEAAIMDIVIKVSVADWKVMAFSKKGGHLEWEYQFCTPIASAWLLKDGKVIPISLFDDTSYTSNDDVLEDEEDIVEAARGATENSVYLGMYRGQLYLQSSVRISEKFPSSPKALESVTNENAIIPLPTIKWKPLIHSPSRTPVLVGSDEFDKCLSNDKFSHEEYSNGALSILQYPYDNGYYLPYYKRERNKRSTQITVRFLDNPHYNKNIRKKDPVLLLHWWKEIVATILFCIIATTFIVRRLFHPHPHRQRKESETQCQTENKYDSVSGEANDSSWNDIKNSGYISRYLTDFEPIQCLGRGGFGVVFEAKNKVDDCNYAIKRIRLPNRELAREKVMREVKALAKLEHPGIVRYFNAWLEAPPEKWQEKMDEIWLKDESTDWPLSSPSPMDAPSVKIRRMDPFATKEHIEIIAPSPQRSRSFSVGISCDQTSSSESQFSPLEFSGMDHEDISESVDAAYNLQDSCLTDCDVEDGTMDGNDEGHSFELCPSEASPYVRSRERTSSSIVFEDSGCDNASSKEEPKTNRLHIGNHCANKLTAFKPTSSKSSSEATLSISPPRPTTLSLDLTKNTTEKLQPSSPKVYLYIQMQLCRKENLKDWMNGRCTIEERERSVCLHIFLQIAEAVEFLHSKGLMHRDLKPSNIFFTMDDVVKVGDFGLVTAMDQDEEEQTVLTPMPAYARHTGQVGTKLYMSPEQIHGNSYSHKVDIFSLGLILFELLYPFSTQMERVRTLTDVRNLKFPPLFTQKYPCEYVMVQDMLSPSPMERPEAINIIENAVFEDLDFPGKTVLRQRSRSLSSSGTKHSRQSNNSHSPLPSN

[5] = test system: U-937; assay: cells; settings: Homo sapiens, U-937, 48 h
[6] = test system: MEF; assay: cells; settings: Mus musculus, 48 h
[7] = in vitro; settings: mouse, L929 cells
[8] = test system: HT-29; assay: cells; settings: Homo sapiens, HT-29, 48 h
[9] = clinical; settings: human
[10] = biological target: T1, Receptor-interacting serine/threonine-protein kinase 1; remark: listed apart in the source
[11] = biological target: T1, Receptor-interacting serine/threonine-protein kinase 1; remark: listed apart in the source
[12] = cells; settings: Homo sapiens, HT-29, 1 h
[13] = biological target: T1, Receptor-interacting serine/threonine-protein kinase 1; assay: biochemical
[14] = biological target: T1, Receptor-interacting serine/threonine-protein kinase 1; remark: listed apart in the source
[15] = test system: L929; assay: cells; settings: Mus musculus, L929, 24 h
[16] = biological target: T1, Receptor-interacting serine/threonine-protein kinase 1; remark: listed apart in the source
[17] = test system: HT-29; assay: cells; settings: Homo sapiens, HT-29, 24 h
[18] = in vitro; settings: mouse, liver microsomes
[19] = biological target: T3, Aurora kinase A (Homo sapiens, UniProt O14965)
T3 sequence (O14965 whole entry): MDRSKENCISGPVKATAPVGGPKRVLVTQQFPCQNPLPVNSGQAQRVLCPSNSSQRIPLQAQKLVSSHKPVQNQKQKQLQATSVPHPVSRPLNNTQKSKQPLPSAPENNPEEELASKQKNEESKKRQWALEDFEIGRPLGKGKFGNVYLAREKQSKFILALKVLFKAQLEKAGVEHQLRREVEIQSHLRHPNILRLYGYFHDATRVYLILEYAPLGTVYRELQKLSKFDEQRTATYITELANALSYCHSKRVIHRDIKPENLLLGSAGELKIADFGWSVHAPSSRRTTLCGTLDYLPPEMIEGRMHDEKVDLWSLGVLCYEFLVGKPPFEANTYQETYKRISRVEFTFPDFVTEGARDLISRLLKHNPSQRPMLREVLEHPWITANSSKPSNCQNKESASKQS

[20] = test system: HT-29; assay: cells; settings: Homo sapiens, HT-29, 24 h; remark: listed apart in the source
[21] = biological target: T2, Eukaryotic translation initiation factor 2-alpha kinase 3; remark: listed apart in the source
[22] = biological target: T1, Receptor-interacting serine/threonine-protein kinase 1; remark: listed apart in the source
[23] = test system: Jurkat; assay: cells; settings: Homo sapiens
[24] = biological target: T4, Receptor-interacting serine/threonine-protein kinase 3 (Homo sapiens, UniProt Q9Y572)
T4 sequence (Q9Y572 whole entry): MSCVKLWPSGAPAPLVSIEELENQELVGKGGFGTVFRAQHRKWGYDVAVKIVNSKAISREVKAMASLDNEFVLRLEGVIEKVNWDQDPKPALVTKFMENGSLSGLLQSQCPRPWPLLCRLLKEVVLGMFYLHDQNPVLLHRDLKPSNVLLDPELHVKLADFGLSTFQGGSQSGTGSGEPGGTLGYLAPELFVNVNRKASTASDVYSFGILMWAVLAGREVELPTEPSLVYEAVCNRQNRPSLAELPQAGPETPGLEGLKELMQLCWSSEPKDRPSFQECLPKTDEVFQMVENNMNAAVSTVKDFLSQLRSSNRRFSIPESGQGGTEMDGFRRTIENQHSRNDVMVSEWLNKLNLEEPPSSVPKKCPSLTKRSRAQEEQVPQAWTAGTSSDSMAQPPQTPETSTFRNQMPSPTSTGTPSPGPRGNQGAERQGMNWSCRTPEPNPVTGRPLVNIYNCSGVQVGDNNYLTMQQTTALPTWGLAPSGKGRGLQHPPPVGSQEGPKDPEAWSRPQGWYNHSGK

[25] = test system: U-937; assay: cells; settings: Homo sapiens
[26] = test system: TOV21G; assay: cells; settings: Homo sapiens
[27] = biological target: Receptor-interacting serine/threonine-protein kinase 2 (Homo sapiens, UniProt O43353)
Chain of Receptor-interacting serine/threonine-protein kinase 2 (O43353 whole entry): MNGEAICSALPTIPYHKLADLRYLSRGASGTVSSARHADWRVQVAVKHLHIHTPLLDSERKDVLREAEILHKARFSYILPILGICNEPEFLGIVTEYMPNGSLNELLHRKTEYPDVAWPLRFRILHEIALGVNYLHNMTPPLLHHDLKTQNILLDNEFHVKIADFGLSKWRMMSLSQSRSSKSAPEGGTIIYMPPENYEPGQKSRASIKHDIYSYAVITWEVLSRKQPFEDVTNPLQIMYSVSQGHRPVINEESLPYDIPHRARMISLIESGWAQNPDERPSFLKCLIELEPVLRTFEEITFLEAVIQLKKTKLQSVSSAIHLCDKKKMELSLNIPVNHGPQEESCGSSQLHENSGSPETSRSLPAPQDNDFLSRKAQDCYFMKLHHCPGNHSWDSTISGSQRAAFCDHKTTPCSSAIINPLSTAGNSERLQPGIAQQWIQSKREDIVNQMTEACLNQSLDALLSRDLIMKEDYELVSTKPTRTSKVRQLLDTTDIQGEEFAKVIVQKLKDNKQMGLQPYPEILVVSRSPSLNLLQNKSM

[28] = test system: HT-29; assay: cells; settings: Homo sapiens
[29] = test system: HT-29; assay: cells; settings: Homo sapiens; remark: listed apart in the source
[30] = biological target: T1, Receptor-interacting serine/threonine-protein kinase 1; remark: listed apart in the source
[31] = biological target: Indoleamine 2,3-dioxygenase 1 (Homo sapiens, UniProt P14902); assay: Inhibition of IDO (unknown origin)
Chain of Indoleamine 2,3-dioxygenase 1 (P14902 whole entry): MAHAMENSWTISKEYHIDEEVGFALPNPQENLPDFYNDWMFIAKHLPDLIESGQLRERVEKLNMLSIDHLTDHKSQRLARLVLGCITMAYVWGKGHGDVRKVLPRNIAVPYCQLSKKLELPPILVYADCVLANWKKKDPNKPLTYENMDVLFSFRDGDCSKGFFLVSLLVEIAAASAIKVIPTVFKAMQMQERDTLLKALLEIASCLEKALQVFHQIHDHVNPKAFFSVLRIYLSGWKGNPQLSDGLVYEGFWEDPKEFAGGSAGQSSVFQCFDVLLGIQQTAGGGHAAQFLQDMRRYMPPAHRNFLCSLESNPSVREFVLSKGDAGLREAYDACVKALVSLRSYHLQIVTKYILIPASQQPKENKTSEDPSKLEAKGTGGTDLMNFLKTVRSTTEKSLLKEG

[32] = test system: Jurkat; assay: Antiproliferative activity against human Jurkat cells assessed as reduction in cell viability by MTT assay; format: functional, cell-based
[33] = test system: HT-29; assay: cells; settings: Homo sapiens, HT-29, 1 h
[34] = test system: MEF; assay: cells; settings: Mus musculus, 24 h
[35] = test system: HT-22; assay: cells; settings: Mus musculus, HT-22, 24 h
[36] = biological target: T4, Receptor-interacting serine/threonine-protein kinase 3; remark: listed apart in the source
[37] = biological target: T5, Regulator of chromosome condensation (Homo sapiens, UniProt P18754)
T5 sequence (P18754 whole entry): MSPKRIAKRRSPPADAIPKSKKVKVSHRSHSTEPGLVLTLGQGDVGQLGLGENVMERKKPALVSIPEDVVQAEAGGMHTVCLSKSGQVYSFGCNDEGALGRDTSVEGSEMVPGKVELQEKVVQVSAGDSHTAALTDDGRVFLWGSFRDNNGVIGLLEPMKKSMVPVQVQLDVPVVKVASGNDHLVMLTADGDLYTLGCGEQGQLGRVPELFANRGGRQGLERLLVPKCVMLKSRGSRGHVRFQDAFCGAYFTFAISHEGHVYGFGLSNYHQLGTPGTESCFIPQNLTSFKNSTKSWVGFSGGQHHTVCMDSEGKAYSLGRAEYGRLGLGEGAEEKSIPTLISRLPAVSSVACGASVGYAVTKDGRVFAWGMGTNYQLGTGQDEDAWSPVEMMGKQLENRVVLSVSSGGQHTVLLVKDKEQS

[38] = biological target: T1, Receptor-interacting serine/threonine-protein kinase 1; remark: listed apart in the source
[39] = test system: L929; assay: cells; settings: Mus musculus

`Cc1ccc(C2CC(=O)NC(SCC(=O)Nc3nccs3)=C2C#N)cc1` (configuration not stated) showed an IC50 [1] of 740 nM.
Work on `CN1C(=O)NC(Cc2c[nH]c3ccccc23)C1=O` (configuration not stated) yielded an IC50 [2] of 210 nM.
Work on `Cc1cccc(CC(=O)N2CCc3cc(-c4cn(C)c5ncnc(N)c45)ccc32)n1` yielded an IC50 [3] of 69.1 nM and an IC50 [4] of 9.7 nM.
Work on `Cn1cc(-c2ccc3c(c2)CCN3C(=O)Cc2cccc(C(F)(F)F)n2)c2c(N)ncnc21` yielded an IC50 [3] of 18.2 nM and an IC50 [4] of 3.8 nM.
With `CC(=O)Nc1nc2ccc(-c3cnc(Cl)c(NC(=O)Cc4ccccc4)c3)cc2s1` the EC50 [5] was 1330 nM, the EC50 [6] was 950 nM and the IC50 [3] was 18.2 nM. For the same molecule, the EC50 at 48 h [7] was 760 nM and the EC50 [8] was 1200 nM.
For `CN1C(=O)N[C@@H](Cc2c[nH]c3c(Cl)cccc23)C1=O`, the half-life [9] was 1 h.
For `CN1C(=O)C(Cc2c[nH]c3c(Cl)cccc23)NC1=S` (configuration not stated), the IC50 [2] was 180 nM.
`Cc1cc(Nc2cc(N3CCN(C)CC3)nc(Nc3ccc(NC(=O)C4CC4)cc3)n2)n[nH]1` showed an IC50 [10] of 170 nM.
In the case of `O=C(c1cc2c(-c3ccc(F)cc3)cccc2s1)N1CCOCC1`, the IC50 [11] is reported as 110 nM.
`CCCCNc1nc2ccc([N+](=O)[O-])cc2[nH]1` gave an EC50 [12] of 1700 nM.
`O=C(c1ccc(-c2cc3cccnc3[nH]2)cc1)N1CCOCC1` showed an IC50 [13] of 88000 nM.
`O=C(Nc1cn2cc(-c3cnc4c(c3)N(C(=O)OC3CCOCC3)CC4)ccc2n1)C1CC1` gave a Kd [14] of 8.7 nM.
Molecule `O=C(NC1CCOCC1)c1nsc2ncc(-c3ccc4nc(NC(=O)C5CC5)sc4c3)cc12` has a Kd [14] of 13 nM, an EC50 [15] of 1.9 nM and an IC50 [16] of 5.8 nM. For the same molecule, the EC50 [17] was 5 nM and the half-life [18] was greater than 1.5 h.
With `Cc1cc(Nc2cc(N3CCNCC3)nc(Nc3ccc(NC(=O)C4CC4)cc3)n2)n[nH]1` the IC50 [19] was 430 nM and the IC50 [10] was 160 nM.
Work on `O=[N+]([O-])c1ccn(Cc2ccc(Cl)cc2Cl)n1` yielded an EC50 [20] of 1050 nM.
Molecule `Cc1nnsc1C(=O)N[C@H](C)c1c(F)cccc1Cl` has a half-life [9] of 0.542 h and an EC50 [2] of 400 nM.
`CC(=O)NC1=NC2C=CC(c3cnc4ccn(C(=O)OC5CCCCC5)c4c3)=CC2S1` (configuration not stated) gave an EC50 [15] of 26 nM and an EC50 [17] of 58 nM.
Work on `Cn1cc(-c2ccc3c(c2)CCN3C(=O)Cc2ccc(C(F)(F)F)cn2)c2c(N)ncnc21` yielded an IC50 [21] greater than 5000 nM and an IC50 [22] of 2.9 nM.
`CN1C(=O)[C@@H](Cc2c[nH]c3c(Cl)c(F)ccc23)N(C=O)C1=O` gave an IC50 [23] of 185 nM and an IC50 [24] of 366 nM.
In the case of `O=C(NCCc1ccccc1Cl)c1cn(-c2ccccc2)nn1`, the IC50 [16] is reported as 250 nM.
`C[C@@H](Oc1cc(-c2cnn(C3CCNCC3)c2)cnc1N)c1c(Cl)ccc(F)c1Cl` [CRIZOTINIB] showed an IC50 [23] of 2380 nM.
For `COc1cc(CCc2cc(NC(=O)c3ccc(N4C[C@@H](C)N[C@@H](C)C4)cc3)n[nH]2)cc(OC)c1` [FEXAGRATINIB], the EC50 [25] was 31 nM, the EC50 [26] was 52 nM and the IC50 [27] was 259 nM. It also gave an EC50 [28] of 19 nM, an IC50 [24] of 10000 nM and an EC50 [29] of 19 nM. It also gave an IC50 [30] of 12 nM.
In the case of `Cc1ccc(F)c(NC(=O)Nc2ccc(-c3cccc4[nH]nc(N)c34)cc2)c1` [LINIFANIB], the IC50 [16] is reported as 95 nM.
In the case of `CN1C(=O)C(Cc2c[nH]c3ccccc23)NC1=S` (configuration not stated) [NECROSTATIN], the IC50 [31] is reported as 39100 nM and the EC50 [32] is reported as 540 nM.
For `Cc1ccc(Nc2nccc(N(C)c3ccc4c(C)n(C)nc4c3)n2)cc1S(N)(=O)=O` [PAZOPANIB], the EC50 [23] was 254 nM.
In the case of `COc1cc(/C=C/C(=O)N2CCC=CC2=O)cc(OC)c1OC` [PIPLARTINE], the EC50 [12] is reported as 6410 nM and the EC50 [33] is reported as 540 nM.
In the case of `Cc1ccc(C(=O)Nc2ccc(CN3CCN(C)CC3)c(C(F)(F)F)c2)cc1C#Cc1cnc2cccnn12` [PONATINIB], the EC50 [23] is reported as 89 nM and the EC50 [28] is reported as 50 nM.
In the case of `CC(C)(C)c1cc(NC(=O)Nc2ccc(-c3cn4c(n3)sc3cc(OCCN5CCOCC5)ccc34)cc2)no1` [QUIZARTINIB], the EC50 [34] is reported as 66500 nM and the EC50 [35] is reported as 194 nM.
In the case of `CNC(=O)c1cc(Oc2ccc(NC(=O)Nc3cc(C(C)(C)C)nn3-c3ccc4ncccc4c3)c(F)c2)ccn1` [REBASTINIB], the IC50 [36] is reported as 18.6 nM, the EC50 [37] is reported as 18.7 nM and the IC50 [38] is reported as 6.49 nM.
For `CCCS(=O)(=O)Nc1ccc(F)c(C(=O)c2c[nH]c3ncc(-c4ccc(Cl)cc4)cc23)c1F` [VEMURAFENIB], the EC50 [39] was 3750 nM.
